{
  "source": "paper PMC12655426",
  "about": "(Pharmaceutics, 2025)",
  "key": {"OAT3": {"molecular_target": "T1, OAT3 (Homo sapiens, UniProt Q8TCC7)", "T1 sequence (Q8TCC7 1-542)": "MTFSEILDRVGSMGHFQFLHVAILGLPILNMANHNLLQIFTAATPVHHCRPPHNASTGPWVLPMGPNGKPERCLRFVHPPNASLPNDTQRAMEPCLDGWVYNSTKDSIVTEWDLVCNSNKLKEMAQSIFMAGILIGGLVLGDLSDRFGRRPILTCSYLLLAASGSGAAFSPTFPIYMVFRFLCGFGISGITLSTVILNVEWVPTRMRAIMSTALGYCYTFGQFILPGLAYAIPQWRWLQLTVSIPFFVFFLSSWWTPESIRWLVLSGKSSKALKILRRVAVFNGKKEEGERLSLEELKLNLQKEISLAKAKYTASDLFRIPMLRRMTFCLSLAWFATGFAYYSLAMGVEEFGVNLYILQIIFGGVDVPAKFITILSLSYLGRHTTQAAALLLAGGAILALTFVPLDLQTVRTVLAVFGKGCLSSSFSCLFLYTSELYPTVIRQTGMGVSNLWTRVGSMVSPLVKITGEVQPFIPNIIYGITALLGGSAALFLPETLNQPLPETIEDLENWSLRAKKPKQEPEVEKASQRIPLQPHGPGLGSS", "assay": "OTA uptake in OAT3-overexpressing HEK293 cells (screen and kinetics)", "method": "(§1) The following experiments were conducted at the University of Washington. Mock HEK293 cells and transporter-overexpressing HEK293 cells (i.e., OAT1–4, OCT2, MATE1/2K, OCTN1, OATP1A2), mock CHO cells, and OCTN2-overexpressing CHO cells were plated in 96 well plates coated with 0.05 mg/mL of poly-D-lysine in 50 μL DPBS at a density of 800,000 cells/mL and grown until reaching over 90% of confluence. […] For uptake experiments in MATE1- and MATE2-K-expressing HEK293 cells, the pH of the incubation buffer was adjusted to 8.0 to facilitate substrate uptake. For uptake experiments in OATP1A2-expressing and OAT4-expressing HEK293 cells, the pH of the incubation buffer was adjusted to 6.5 to mimic pH of the urinary filtrate, as these are apical transporters. The incubation buffer was kept at pH 7.4 for all other transporters. […] Uptake was quenched by removing the substrates/inhibitors and washing the cells 3 times with 200 μL of ice-cold HBSS++. […] The precipitated protein was allowed to dry and subsequently solubilized overnight in 1M NaOH, neutralized with 1 M HCl the next day, and measured by BCA assay.\n(§2) All cellular-based assays were conducted in technical triplicate across three independent experiments. […] This cutoff was defined a priori. […] Jnet was then treated as the initial uptake rate, and Km and Vmax values were obtained by fitting the Michaelis–Menten equation to the substrate-concentration data as described above. Intrinsic clearance (CLint) was then calculated by the formula, CLint=Vmax/Km using Vmax and Km values as calculated above. […] At steady-state, the mass balance for intracellular concentrations assuming symmetric passive permeabilities (Papical = Pbasal, taken as Papp from mock assays) and apical efflux gives: Ccell= Cbasal/1+ ke/Pa where Cbasal is the concentration in the basal chamber and ke is the first-order elimination with respect to BCRP. Because the asymmetric efflux ratio ERa is defined as: ERa=1+ ke/Pa"}, "[1]": {"settings": "single fasted volunteer, microdose of radioactive OTA in ethanol, within 8 h, not absolute bioavailability; cited from earlier work"}, "OAT4": {"molecular_target": "T2, OAT4 (Homo sapiens, UniProt Q9NSA0)", "T2 sequence (Q9NSA0 1-550)": "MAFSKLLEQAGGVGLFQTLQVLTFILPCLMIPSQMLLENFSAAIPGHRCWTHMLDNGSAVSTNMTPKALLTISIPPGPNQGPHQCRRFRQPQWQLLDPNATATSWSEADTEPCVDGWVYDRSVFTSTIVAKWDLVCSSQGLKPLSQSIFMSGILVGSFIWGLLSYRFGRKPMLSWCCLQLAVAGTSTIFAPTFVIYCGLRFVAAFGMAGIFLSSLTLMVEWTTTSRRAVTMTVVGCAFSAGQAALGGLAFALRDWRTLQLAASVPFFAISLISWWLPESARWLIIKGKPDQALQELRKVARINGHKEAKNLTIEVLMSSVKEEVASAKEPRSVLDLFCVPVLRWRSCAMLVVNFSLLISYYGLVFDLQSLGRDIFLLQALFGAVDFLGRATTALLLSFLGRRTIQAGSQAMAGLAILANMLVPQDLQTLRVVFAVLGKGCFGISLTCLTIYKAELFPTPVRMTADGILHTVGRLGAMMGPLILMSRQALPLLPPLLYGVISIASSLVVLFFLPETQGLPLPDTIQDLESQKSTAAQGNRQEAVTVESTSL", "assay": "OTA uptake in OAT4-overexpressing HEK293 cells (screen and kinetics)", "method": "as §1, §2"}, "SLC17A3 (NPT4)": {"system": "SLC17A3 (NPT4)", "settings": "OTA extracellular efflux; cited from earlier work"}, "[2]": {"system": "human serum albumin (HSA)", "settings": "no reference given; cited from earlier work"}, "OATP1A2": {"molecular_target": "T3, OATP1A2 (Homo sapiens, UniProt P46721)", "T3 sequence (P46721 1-670)": "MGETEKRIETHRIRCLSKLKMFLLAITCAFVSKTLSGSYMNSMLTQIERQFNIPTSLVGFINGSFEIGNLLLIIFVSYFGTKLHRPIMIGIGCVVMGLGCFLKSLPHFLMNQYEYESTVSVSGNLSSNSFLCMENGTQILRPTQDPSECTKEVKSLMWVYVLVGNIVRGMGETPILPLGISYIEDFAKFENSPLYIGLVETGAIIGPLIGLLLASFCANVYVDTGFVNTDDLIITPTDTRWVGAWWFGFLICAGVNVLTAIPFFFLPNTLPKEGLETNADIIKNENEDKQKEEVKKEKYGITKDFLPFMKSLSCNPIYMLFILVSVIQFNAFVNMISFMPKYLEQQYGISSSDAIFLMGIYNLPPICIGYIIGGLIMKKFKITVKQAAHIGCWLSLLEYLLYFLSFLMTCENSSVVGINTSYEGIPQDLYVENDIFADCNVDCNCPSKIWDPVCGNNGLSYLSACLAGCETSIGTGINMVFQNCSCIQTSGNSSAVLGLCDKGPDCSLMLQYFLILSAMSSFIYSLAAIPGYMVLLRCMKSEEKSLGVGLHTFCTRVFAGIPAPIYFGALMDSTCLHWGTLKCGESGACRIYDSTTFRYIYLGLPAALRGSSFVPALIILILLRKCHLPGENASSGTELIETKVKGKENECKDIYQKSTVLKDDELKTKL", "assay": "OTA uptake in OATP1A2-overexpressing HEK293 cells (screen and kinetics)", "method": "as §1, §2"}, "[3]": {"settings": "HEK293, 5 min, 37 °C, pH 6.5, mock-corrected"}},
  "data": [
    {"compound": "C[C@@H]1Cc2c(Cl)cc(C(=O)N[C@@H](Cc3ccccc3)C(=O)O)c(O)c2C(=O)O1", "note": "[OTA, Ochratoxin A]", "values": [
      {"measurement": "Vmax", "setting": "OAT3; HEK293, 5 min, 37 °C, pH 7.4, mock-corrected", "value": "141.4 ± 30.3", "unit": "pmol/mg/min"},
      {"measurement": "microsomal CLint", "setting": "OAT3; human, other cell line, pH 7.4", "value": "56.1 ± 6.3", "unit": "µL/min/mg"},
      {"measurement": "Km at 5 min", "setting": "OAT3; human, pH 7.4", "value": "2.58 ± 0.83", "unit": "µM"},
      {"measurement": "percentage of administered radioactivity detected in plasma", "setting": "[1]", "value": "~ 93%"},
      {"measurement": "Km", "setting": "OAT4; [3]", "value": "6.38 ± 1.45", "unit": "µM"},
      {"measurement": "Vmax", "setting": "OAT4; [3]", "value": "96.9 ± 18.8", "unit": "pmol/mg/min"},
      {"measurement": "microsomal CLint", "setting": "OAT4; human, other cell line, pH 6.5", "value": "15.3 ± 0.8", "unit": "µL/min/mg"},
      {"measurement": "Km", "setting": "SLC17A3 (NPT4)", "value": 803, "unit": "µM"},
      {"measurement": "bound to human serum albumin", "setting": "[2]", "value": "> 99", "unit": "%"},
      {"measurement": "Vmax", "setting": "OATP1A2; [3]", "value": "801.0 ± 133.9", "unit": "pmol/mg/min"},
      {"measurement": "microsomal CLint", "setting": "OATP1A2; human, other cell line, pH 6.5", "value": "21.6 ± 2.3", "unit": "µL/min/mg"},
      {"measurement": "Km at 5 min", "setting": "OATP1A2; human, pH 6.5", "value": "37.3 ± 6.2", "unit": "µM"}
    ]}
  ]
}
